Values quoted from earlier work, collected in PMC9042886 (RSC Advances, 2021).

How the values were obtained:
HDAC8 = details: read-out: IC50 for HDAC8
HDAC6 = details: read-out: IC50 for HDAC6

IC50 (HDAC8): 3.1 ± 1.65 µM | IC50 (HDAC6): 0.306 ± 0.069 µM
Structure (SMILES): Oc1ccc[nH]c1=S [3-HPT, 3-hydroxypyridin-2-thione]
